{"source": "patent US9155726B2", "about": "“Method of treatment using checkpoint kinase 1 inhibitors” (ARRAY BIOPHARMA INC., priority 2009, dated 2015)", "key": {"[1]": {"tested_on": "subcutaneous HT-29 xenografts", "test": "TGI/tolerability experiment, CPT11 with simultaneous or 24 hour delayed Compound 1 (Example 3)", "assay_type": "in vivo, nude mice", "settings": "single agents: CPT11 100 mg/kg IP single dose; Compound 1 50 mg/kg PO BID 3 days", "protocol": "Female nude mice were inoculated subcutaneously with 5×10^6 HT-29 tumor cells in 1×PBS (100 μL). Twelve days later, mice were randomized into groups of 6 with an average tumor volume in each group of approximately 250 mm^3. […] Tumor size and animal body weight were measured over the course of the study on the days indicated with data points in FIG. 5. Tumor volume was calculated using the formula: volume=(width^2×length)/2."}, "[2]": {"test": "Tolerability of CPT11 with Compound 2 started 12, 24 or 48 hours post CPT11 (Example 4)", "assay_type": "in vivo, nude mice", "settings": "single agents: CPT11 100 mg/kg IP Q10Dx2; Compound 2 25 mg/kg PO BID 3 days per cycle; naive mice"}, "[3]": {"tested_on": "subcutaneous HT-29 xenografts", "settings": "mouse, in vivo, ip, 100 mg/kg", "protocol": "Female nude mice were inoculated subcutaneously with 5×10^6 HT-29 tumor cells in 1×PBS (100 μL). Fourteen days later, mice were randomized into groups of 8 with an average tumor volume in each group of approximately 260 mm^3. […] Tumor size and animal body weight were measured over the course of the study on the days indicated with data points in FIG. 12. Tumor volume was calculated using the formula: volume=(width^2×length)/2."}, "[4]": {"tested_on": "subcutaneous HT-29 xenografts", "test": "TGI experiment, CPT11 with Compound 5 (Example 12)", "assay_type": "in vivo", "protocol": "Female nude mice were inoculated subcutaneously with 4×10^6 HT-29 tumor cells in 1×PBS (100 μL). Twelve days later, mice were randomized into groups of 7 with an average tumor volume in each group of approximately 200 mm^3. […] Tumor size and animal body weight were measured over the course of the study on the days indicated with data points in FIG. 13. Tumor volume was calculated using the formula: volume=(width^2×length)/2. No mortalities occurred over the course of this study."}, "[5]": {"tested_on": "Phosphorylation of cdc2", "test": "Inhibition of CPT11 induced phosphorylation of cdc2 in HT-29 tumors, immunoblot (Example 6)", "assay_type": "in vivo, nude mice", "settings": "3 consecutive days BID versus single dose, 25 mg/kg PO, from 24 hours after CPT11 100 mg/kg", "protocol": "Female nude mice were inoculated subcutaneously with 5×10^6 HT-29 tumor cells in 1×PBS (100 μL). Twenty four days later, mice were randomized into groups of 3 with an average tumor volume in each group of approximately 450 mm^3. […] Compound 2 was given as a single dose, or alternatively for 3 consecutive days on a BID schedule. All tumors from animals dosed with Compound 2 were harvested 2 hours post dose. Phosphorylation of cdc2 was assessed by immunoblot and normalized to total ERK expression. Results are expressed as POC."}, "[6]": {"tested_on": "subcutaneous HT-29 xenografts", "test": "TGI experiment, CPT11 with Compound 2 for 1 or 3 days (Example 5)", "assay_type": "in vivo", "settings": "single agents: CPT11 100 mg/kg IP Q10Dx2; Compound 2 25 mg/kg PO BID", "protocol": "Female nude mice were inoculated subcutaneously with 5×10^6 HT-29 tumor cells in 1×PBS (100 μL). Twelve days later, mice were randomized into groups of 8 with an average tumor volume in each group of approximately 215 mm^3. […] Tumor size and animal body weight were measured over the course of the study on the days indicated with data points in FIG. 6. Tumor volume was calculated using the formula: volume=(width^2×length)/2. No mortalities occurred over the course of this study."}, "[7]": {"test": "Compound 2 exposure after single dose or 3 days dosing (Example 6)", "assay_type": "in vivo, nude mice", "settings": "25 mg/kg PO, from 24 hours after CPT11 100 mg/kg; t-test>0.05"}, "[8]": {"tested_on": "Phosphorylation of cdc2", "test": "Inhibition of CPT11 induced phosphorylation of cdc2 in HT-29 tumors, immunoblot (Example 7)", "assay_type": "in vivo, nude mice", "settings": "5, 10 or 25 mg/kg PO BID 3 consecutive days from 24 hours after CPT11 100 mg/kg; HT-29 tumors harvested 96 hours post CPT11", "protocol": "Female nude mice were inoculated subcutaneously with 5×10^6 HT-29 tumor cells in 1×PBS (100 μL). Twenty nine days later, mice were randomized into groups of 3 with an average tumor volume in each group of approximately 500 mm^3. […] Compound 5 was given as a single dose at 25 mg/kg, or alternatively 5, 10, or 25 mg/kg doses were given for 3 consecutive days on BID schedules. […] Phosphorylation of cdc2 was assessed by immunoblot and normalized to total ERK expression. Results are expressed as POC."}, "[9]": {"settings": "single agents: CPT11 100 mg/kg IP Q10Dx2, Compound 5 PO BID (dose of single-agent group not given)"}}, "note": "Where two headings read alike, the source gives them in different places.", "data": [{"compound": "CCc1c2c(nc3ccc(OC(=O)N4CCC(N5CCCCC5)CC4)cc13)-c1cc3c(c(=O)n1C2)COC(=O)[C@]3(O)CC", "note": "[CPT11, irinotecan]", "values": [{"measurement": "% Mortality", "setting": "[1]", "value": 0, "unit": "%"}, {"measurement": "% Mortality", "setting": "[2]", "value": 0, "unit": "%"}, {"measurement": "Day of Maximum % Body Weight Loss", "setting": "[2]", "value": 14, "unit": "days"}, {"measurement": "Maximum % Body Weight Loss", "setting": "[2]", "value": 3.4, "unit": "%"}, {"measurement": "Maximum % Body Weight Loss", "setting": "[3]", "value": 0.08, "unit": "%"}, {"measurement": "Day of Maximum % Body Weight Loss", "setting": "[4]; mouse, in vivo, 100 mg/kg", "value": 18, "unit": "days"}, {"measurement": "Maximum % Body Weight Loss", "setting": "[4]; mouse, in vivo, 100 mg/kg", "value": 6.3, "unit": "%"}]}, {"compound": "N[C@@H]1CCCN(c2c(Br)cnc3[nH]cc(NC(=O)c4cccnc4)c23)C1", "note": "[Compound 1, (R)—N-(4-(3-aminopiperidin-1-yl)-5-bromo-1H-pyrrolo[2,3-b]pyridin-3-yl)nicotinamide]", "values": [{"measurement": "Inhibition of CPT11 induced phospho-cdc2 with extended dosing", "setting": "[5]", "value": "Superior Inhibition"}]}, {"compound": "CC(C)C(=O)Nc1c[nH]c2ncc(Br)c(N3CCC[C@@H](N)C3)c12", "note": "[Compound 2, (R)—N-(4-(3-aminopiperidin-1-yl)-5-bromo-1H-pyrrolo[2,3-b]pyridin-3-yl)isobutyramide]", "values": [{"measurement": "Day of Maximum % Body Weight Loss", "setting": "[2]", "value": 17, "unit": "days"}, {"measurement": "Maximum % Body Weight Loss", "setting": "[2]", "value": 0.3, "unit": "%"}, {"measurement": "Day of Maximum % Body Weight Loss", "setting": "[6]", "value": 3, "unit": "days"}, {"measurement": "Maximum % Body Weight Loss", "setting": "[6]", "value": 7.2, "unit": "%"}, {"measurement": "Compound 2 exposure, single dose versus administration for 3 days", "setting": "[7]", "value": "not statistically different"}]}, {"compound": "N[C@@H]1CCCN(c2c(Br)cnc3[nH]cc(NC(=O)C4CC4)c23)C1", "note": "[Compound 5, (R)—N-(4-(3-aminopiperidin-1-yl)-5-bromo-1H-pyrrolo[2,3-b]pyridin-3-yl)cyclopropanecarboxamide]", "values": [{"measurement": "Day of Maximum % Body Weight Loss", "setting": "[4]; [9]", "value": 18, "unit": "days"}, {"measurement": "Maximum % Body Weight Loss", "setting": "[4]; [9]", "value": 2.5, "unit": "%"}, {"measurement": "Inhibition of CPT11 induced phospho-cdc2 with extended dosing", "setting": "[8]", "value": "Dose-Related Inhibition"}]}]}
